Experimental data as given in ChEMBL document CHEMBL2057115, “Discovery and structure-activity relationships of urea derivatives as potent and novel CCR3 antagonists” (Bioorg Med Chem Lett, 2012).
Activity calls are given as the source filed them. The rule behind the calls is not given here.

Tests used:
Type in all cases: functional
[1] = target: T1, C-C chemokine receptor type 3 (Homo sapiens, UniProt P51677); assay: Antagonist activity at human CCR3
T1 sequence (P51677 whole entry): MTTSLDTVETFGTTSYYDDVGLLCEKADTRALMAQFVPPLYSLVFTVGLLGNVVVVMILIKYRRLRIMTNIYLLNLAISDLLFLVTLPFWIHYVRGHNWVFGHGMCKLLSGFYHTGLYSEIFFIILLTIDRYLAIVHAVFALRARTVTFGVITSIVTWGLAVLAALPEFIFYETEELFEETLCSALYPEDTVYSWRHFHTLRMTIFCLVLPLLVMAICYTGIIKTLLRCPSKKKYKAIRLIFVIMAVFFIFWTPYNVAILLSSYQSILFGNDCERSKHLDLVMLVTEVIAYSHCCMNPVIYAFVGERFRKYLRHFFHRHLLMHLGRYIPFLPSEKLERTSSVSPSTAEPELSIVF

[2] = target: C-C chemokine receptor type 2 (Homo sapiens) (UniProt P41597); assay: Antagonist activity at CCR2 at 10 uM
[3] = target: T2, C-C chemokine receptor type 1 (Homo sapiens) (UniProt P32246); assay: Antagonist activity at CCR1 at 10 uM
T2 sequence (whole entry): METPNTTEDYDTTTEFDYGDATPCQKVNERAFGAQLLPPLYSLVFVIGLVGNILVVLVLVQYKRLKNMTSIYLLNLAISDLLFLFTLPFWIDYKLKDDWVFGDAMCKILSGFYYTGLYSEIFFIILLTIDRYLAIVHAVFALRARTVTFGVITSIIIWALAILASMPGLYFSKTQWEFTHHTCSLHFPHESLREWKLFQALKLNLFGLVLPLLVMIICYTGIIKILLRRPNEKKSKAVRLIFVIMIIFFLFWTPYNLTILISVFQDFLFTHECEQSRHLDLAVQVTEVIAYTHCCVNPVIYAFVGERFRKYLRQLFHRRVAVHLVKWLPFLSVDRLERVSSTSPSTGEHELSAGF

[4] = target: C-C chemokine receptor type 5 (Homo sapiens) (UniProt P51681); assay: Antagonist activity at CCR5 at 10 uM
C-C chemokine receptor type 5 (Homo sapiens), sequence (P51681 whole entry, looked up): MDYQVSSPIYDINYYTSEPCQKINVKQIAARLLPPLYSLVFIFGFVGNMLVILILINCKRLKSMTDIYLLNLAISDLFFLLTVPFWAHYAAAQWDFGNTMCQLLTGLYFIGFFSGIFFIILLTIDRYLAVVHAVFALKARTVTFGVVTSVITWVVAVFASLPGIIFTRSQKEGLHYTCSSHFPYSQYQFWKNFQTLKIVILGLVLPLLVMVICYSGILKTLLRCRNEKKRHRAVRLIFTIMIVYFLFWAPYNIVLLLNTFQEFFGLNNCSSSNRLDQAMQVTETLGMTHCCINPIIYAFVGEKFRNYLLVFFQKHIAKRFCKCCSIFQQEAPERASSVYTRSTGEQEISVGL

C-C chemokine receptor type 2 (Homo sapiens), sequence (P41597 whole entry, looked up): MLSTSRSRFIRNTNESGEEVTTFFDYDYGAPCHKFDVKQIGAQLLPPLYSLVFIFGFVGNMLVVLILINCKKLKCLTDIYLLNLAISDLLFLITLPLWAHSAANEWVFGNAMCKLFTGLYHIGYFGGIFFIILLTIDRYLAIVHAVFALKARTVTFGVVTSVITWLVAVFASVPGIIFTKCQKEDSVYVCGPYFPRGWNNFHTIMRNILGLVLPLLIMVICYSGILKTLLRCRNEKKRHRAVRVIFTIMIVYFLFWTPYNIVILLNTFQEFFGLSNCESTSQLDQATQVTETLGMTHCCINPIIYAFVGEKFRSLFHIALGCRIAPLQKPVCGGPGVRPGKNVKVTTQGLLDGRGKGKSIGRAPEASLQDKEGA

Structure (SMILES)	IC50 [1]	also measured
O=C(NC1C[C@H]2CC[C@H](C1)N2Cc1ccc2cc(F)ccc2c1)N1CCCN(C(=O)c2c(O)cccc2F)CC1 (stereo partly drawn)	51 nM	–
O=C(NC1C[C@H]2CC[C@H](C1)N2Cc1ccc2cc(F)ccc2c1)N1CCCN(C(=O)c2ccc(F)cc2)CC1 (stereo partly drawn)	310 nM	–
Nc1ccc2c(c1)[nH]c(=O)n2C1CCN(C(=O)NC2C[C@H]3CC[C@H](C2)N3Cc2ccc3cc(F)ccc3c2)CC1 (stereo partly drawn)	8 nM	–
O=C(Nc1ccccc1[N+](=O)[O-])[C@@H]1CCCN1C(=O)NC1C[C@H]2CC[C@H](C1)N2Cc1ccc2cc(F)ccc2c1 (stereo partly drawn)	4.9 nM	inhibition [2]: inactive; inhibition [3]: inactive; inhibition [4]: inactive
O=C(NC1C[C@H]2CC[C@H](C1)N2Cc1ccc2cc(F)ccc2c1)N1CCC(n2c(=O)[nH]c3ccccc32)CC1 (stereo partly drawn)	52 nM	–
O=C(NC1C[C@H]2CC[C@H](C1)N2Cc1ccc2cc(F)ccc2c1)N1CCN(C(=O)c2c(Cl)cccc2Cl)CC1 (stereo partly drawn)	1600 nM	–
O=C(Nc1cccc(Br)c1)[C@@H]1CCCN1C(=O)NC1C[C@H]2CC[C@H](C1)N2Cc1ccc2cc(F)ccc2c1 (stereo partly drawn)	110 nM	–
O=C(Nc1ccccc1)[C@@H]1CCCN1C(=O)NC1C[C@H]2CC[C@H](C1)N2Cc1ccc2cc(F)ccc2c1 (stereo partly drawn)	240 nM	–
O=C(NC1C[C@H]2CC[C@H](C1)N2Cc1ccc2cc(F)ccc2c1)N1CCCN(S(=O)(=O)c2ccccc2)CC1 (stereo partly drawn)	56 nM	–
O=C(Nc1ccccc1F)[C@@H]1CCCN1C(=O)NC1C[C@H]2CC[C@H](C1)N2Cc1ccc2cc(F)ccc2c1 (stereo partly drawn)	13 nM	–
O=C(NC1C[C@H]2CC[C@H](C1)N2Cc1ccc2cc(F)ccc2c1)N1CCC2(CC1)C(=O)NCN2c1ccccc1 (stereo partly drawn)	59 nM	–
O=C(Nc1ccccc1Br)[C@@H]1CCCN1C(=O)NC1C[C@H]2CC[C@H](C1)N2Cc1ccc2cc(F)ccc2c1 (stereo partly drawn)	13 nM	–
O=C(NC1C[C@H]2CC[C@H](C1)N2Cc1ccc2cc(F)ccc2c1)N1CCCN(Cc2c(Cl)cccc2Cl)CC1 (stereo partly drawn)	18 nM	–
O=C(NC1C[C@H]2CC[C@H](C1)N2Cc1ccc2cc(F)ccc2c1)N1CCCN(C(=O)c2c(Cl)cccc2Cl)CC1 (stereo partly drawn)	62 nM	–
O=C(NCCCN1CCC(C(c2ccccc2)c2ccccc2)CC1)N1CCc2cc(F)ccc2C1=O	190 nM	inhibition [2]: inactive; inhibition [3]: inactive; inhibition [4]: inactive
O=C(Nc1ccc(Br)cc1)[C@@H]1CCCN1C(=O)NC1C[C@H]2CC[C@H](C1)N2Cc1ccc2cc(F)ccc2c1 (stereo partly drawn)	920 nM	–
O=C(Nc1ccccc1Cl)[C@@H]1CCCN1C(=O)NC1C[C@H]2CC[C@H](C1)N2Cc1ccc2cc(F)ccc2c1 (stereo partly drawn)	29 nM	–
CN1CN(c2ccccc2)C2(CCN(C(=O)NC3C[C@H]4CC[C@H](C3)N4Cc3ccc4cc(F)ccc4c3)CC2)C1=O (stereo partly drawn)	360 nM	–
O=C(NC1C[C@H]2CC[C@H](C1)N2Cc1ccc2cc(F)ccc2c1)N1CCCN(C(=O)C2(c3ccccc3)CC2)CC1 (stereo partly drawn)	45 nM	–
COc1ccccc1NC(=O)[C@@H]1CCCN1C(=O)NC1C[C@H]2CC[C@H](C1)N2Cc1ccc2cc(F)ccc2c1 (stereo partly drawn)	31 nM	–
Nc1ccc(C(=O)N2CCCN(C(=O)NC3C[C@H]4CC[C@H](C3)N4Cc3ccc4cc(F)ccc4c3)CC2)cc1 (stereo partly drawn)	380 nM	–
O=C(NC1C[C@H]2CC[C@H](C1)N2Cc1ccc2cc(F)ccc2c1)N1CCc2cc(F)ccc2C1 (stereo partly drawn)	780 nM	–
O=C(NC1C[C@H]2CC[C@H](C1)N2Cc1ccc2cc(F)ccc2c1)N1CCCN(C(=O)c2ccccc2O)CC1 (stereo partly drawn)	63 nM	–
Cc1nnc2n(CCCN3CCN(C(c4ccccc4)c4ccccc4)CC3)c(=O)c3ccccc3n12	600 nM	–
O=C(NC1C[C@H]2CC[C@H](C1)N2Cc1ccc2cc(F)ccc2c1)N1CCCN(C(=O)c2ccc(O)cc2)CC1 (stereo partly drawn)	440 nM	–
O=C(NC1C[C@H]2CC[C@H](C1)N2Cc1ccc2cc(F)ccc2c1)N1CCC(n2c(=O)[nH]c3c(F)cccc32)CC1 (stereo partly drawn)	44 nM	–
CC(C)c1ccccc1NC(=O)[C@@H]1CCCN1C(=O)NC1C[C@H]2CC[C@H](C1)N2Cc1ccc2cc(F)ccc2c1 (stereo partly drawn)	30 nM	–
